According to the NIST ThermoML archive (doi:10.1021/je100017w):
Numbers after ± are expanded uncertainties.

Settings: Liquid

CC[Si](OC)(OC)OC [ethyltrimethoxysilane]
vapor or sublimation pressure (306.35 K): 2.325 ± 0.26 kPa | vapor or sublimation pressure (311.45 K): 3.325 ± 0.26 kPa | vapor or sublimation pressure (315.95 K): 4.325 ± 0.26 kPa | vapor or sublimation pressure (319.8 K): 5.325 ± 0.27 kPa | vapor or sublimation pressure (324.15 K): 6.325 ± 0.29 kPa | vapor or sublimation pressure (328.65 K): 8.325 ± 0.32 kPa | vapor or sublimation pressure (334.15 K): 10.32 ± 0.36 kPa | vapor or sublimation pressure (338.95 K): 13.32 ± 0.42 kPa | vapor or sublimation pressure (343.65 K): 16.32 ± 0.47 kPa | vapor or sublimation pressure (347.65 K): 19.32 ± 0.54 kPa | vapor or sublimation pressure (351.35 K): 22.32 ± 0.6 kPa | vapor or sublimation pressure (354.55 K): 25.32 ± 0.67 kPa | vapor or sublimation pressure (357.45 K): 28.32 ± 0.74 kPa | vapor or sublimation pressure (360.15 K): 31.32 ± 0.81 kPa | vapor or sublimation pressure (362.65 K): 34.33 ± 0.87 kPa | vapor or sublimation pressure (364.95 K): 37.33 ± 0.94 kPa | vapor or sublimation pressure (367.55 K): 40.33 ± 1 kPa | vapor or sublimation pressure (369.65 K): 43.33 ± 1.1 kPa | vapor or sublimation pressure (371.05 K): 46.33 ± 1.1 kPa | vapor or sublimation pressure (374.05 K): 49.33 ± 1.2 kPa | vapor or sublimation pressure (375.85 K): 52.33 ± 1.3 kPa | vapor or sublimation pressure (376.45 K): 55.33 ± 1.6 kPa | vapor or sublimation pressure (379.85 K): 58.33 ± 1.4 kPa | vapor or sublimation pressure (381.15 K): 61.33 ± 1.5 kPa | vapor or sublimation pressure (382.55 K): 64.33 ± 1.6 kPa | vapor or sublimation pressure (383.15 K): 67.33 ± 1.6 kPa | vapor or sublimation pressure (384.85 K): 70.33 ± 1.7 kPa | vapor or sublimation pressure (385.85 K): 73.33 ± 1.8 kPa | vapor or sublimation pressure (386.65 K): 76.33 ± 1.9 kPa | vapor or sublimation pressure (387.55 K): 79.33 ± 1.9 kPa | vapor or sublimation pressure (388.95 K): 82.33 ± 2 kPa | vapor or sublimation pressure (389.95 K): 85.33 ± 2.1 kPa | vapor or sublimation pressure (390.95 K): 88.33 ± 2.1 kPa | vapor or sublimation pressure (392.95 K): 91.33 ± 2.2 kPa | vapor or sublimation pressure (393.05 K): 94.33 ± 2.3 kPa | vapor or sublimation pressure (393.75 K): 97.33 ± 2.4 kPa | vapor or sublimation pressure (393.95 K): 100.33 ± 2.3 kPa | vapor or sublimation pressure (397.15 K): 101.33 ± 2.3 kPa
